The values that follow come from EP4703358A1, “BENZO SIX-MEMBERED HETEROCYCLIC GSPT1 PROTEIN DEGRADATION AGENT AND USE THEREOF” (China Pharmaceutical University, priority 2023, dated 2024).

The pIC50 is the IC50 on a negative log10 scale, so that one unit is a factor of ten.

pIC50: −log10 of the molar value.

The target of one test is T1, GSPT1 protein (Homo sapiens, UniProt P15170+Q96SW2).
T1 construct: host or cells: KG-1 cells
The experiment in a line: Degradation of GSPT1 in KG-1 cells (Western blot). Format: cell-based. Further details: percent GSPT1 degradation: dose or concentration left out as unconfirmed. How it is done:
KG-1 cells (ATCC) were grown in an IMDM culture medium (containing 20% FBS). After centrifugation and counting, the cell concentration was adjusted. The cells were plated onto 6-well plates at 10^6 cells/well, with 1350 µL per well. 150 µL of DMSO and the test compounds of the present disclosure (compound concentration: 200 nM) were added. The plates were incubated in an incubator at 37 °C with 5% CO2 for 4 hours. The cells were centrifuged, and the culture medium was discarded. PBS was added to wash the cells and then discarded. Whole cell lysates were prepared using a protease inhibitor cocktail (100×, Fude Biological), a protein phosphatase inhibitor cocktail (100×, Fude Biological), SuperNuclease (Beyotime), and a high-intensity RIPA lysis buffer (Thermo Fisher) and placed on ice for 30 minutes. After centrifugation, the cell debris precipitates were discarded, and the whole cell lysate supernatants were collected and transferred to new centrifuge tubes. After a BCA protein assay, samples were prepared using a 5× loading buffer (Thermo Fisher). The samples were subjected to protein electrophoresis separation in a 4-20% precast gel (SDS-PAGE gel), transferred to a PVDF membrane, then blocked with 5% NFDM/TBST at room temperature for 1 hour, incubated overnight with primary antibodies at 4 °C, and incubated with a secondary antibody at room temperature for 2 hours the next day. Signals were detected using a MINICHEMITM imaging system.
Primary antibodies: • Anti-GSPT1: Abcam ab234433 • Anti-beta actin: Fude Biological FD0060
Secondary antibody: Anti-rabbit peroxidase-linked secondary antibody: Fude Biological FDG007
The degradation effects of the compounds on GSPT1 protein are shown in Table 1, where A represents a GSPT1 protein degradation percentage of no less than 80%, B represents a degradation percentage of less than 80% but no less than 50%, C represents a degradation percentage of less than 50% but no less than 25%, and D represents a degradation percentage of less than 25%. Table 1. The degradation of GSPT1 protein by compounds

In a further test the test system is KG-1 cells. The experiment in a line: Antiproliferative activity against KG-1 cells (CCK8). Format: cell-based. The settings on record: 72 hours. How it is done:
KG-1 cells in the logarithmic growth phase were diluted in a culture medium (RPMI + 10% FBS) and plated onto 96-well plates at 5000 cells/well, and the plates were incubated in an incubator at 37 °C with 5% CO2 for 24 hours. 10 mM stock solutions of the test compounds of the present disclosure in DMSO were prepared and diluted with the culture medium to set 9 concentration gradients. Three replicate wells were set for each concentration. After compound addition, the plates were incubated in an incubator at 37 °C with 5% CO2 for 72 hours. The cell proliferation was assessed using the CCK8 method. The cell growth inhibition IC50 values of the compounds were determined using an enzyme labeling method. The IC50 values were calculated using GraphPad Prism 7 software.
The antiproliferative activity of the compounds against KG-1 cells is shown in Table 2, where A represents IC50 < 1 nM, B represents 1 ≤ IC50 < 10 nM, C represents 10 nM ≤ IC50 < 100 nM, D represents 100 nM ≤ IC50 < 1000 nM, and E represents IC50 ≥ 1000 nM. Table 2. The antiproliferative activity of compounds against KG-1 cells

Setting [1] is: KG-1 cells, compound concentration 200 nM, 4 hours.

T1 sequence (P15170 whole entry): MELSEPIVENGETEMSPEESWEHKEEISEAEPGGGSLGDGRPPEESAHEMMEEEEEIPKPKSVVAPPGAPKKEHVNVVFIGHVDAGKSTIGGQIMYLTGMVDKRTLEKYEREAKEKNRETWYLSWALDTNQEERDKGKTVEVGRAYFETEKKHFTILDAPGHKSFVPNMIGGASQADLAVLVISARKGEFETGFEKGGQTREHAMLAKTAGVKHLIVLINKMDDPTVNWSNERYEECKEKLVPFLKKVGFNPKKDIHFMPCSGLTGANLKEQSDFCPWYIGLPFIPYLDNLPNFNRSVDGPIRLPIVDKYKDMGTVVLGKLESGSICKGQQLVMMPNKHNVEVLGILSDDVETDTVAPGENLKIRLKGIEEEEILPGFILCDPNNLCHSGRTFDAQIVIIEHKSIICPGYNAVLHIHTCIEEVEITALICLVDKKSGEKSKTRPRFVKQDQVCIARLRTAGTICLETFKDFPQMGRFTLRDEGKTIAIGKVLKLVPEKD
T1 sequence (Q96SW2 whole entry): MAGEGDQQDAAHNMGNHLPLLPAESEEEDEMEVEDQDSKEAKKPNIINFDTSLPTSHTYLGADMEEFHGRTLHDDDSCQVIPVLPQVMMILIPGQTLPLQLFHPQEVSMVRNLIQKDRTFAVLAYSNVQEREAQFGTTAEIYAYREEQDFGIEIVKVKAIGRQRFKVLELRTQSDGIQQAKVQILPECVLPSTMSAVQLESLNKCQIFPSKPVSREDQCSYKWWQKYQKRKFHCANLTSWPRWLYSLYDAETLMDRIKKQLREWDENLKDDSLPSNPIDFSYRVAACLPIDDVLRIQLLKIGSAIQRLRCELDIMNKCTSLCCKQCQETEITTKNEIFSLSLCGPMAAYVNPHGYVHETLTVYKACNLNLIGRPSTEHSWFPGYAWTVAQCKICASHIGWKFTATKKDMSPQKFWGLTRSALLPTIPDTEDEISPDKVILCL
T1 sequence (Q16531 whole entry partner): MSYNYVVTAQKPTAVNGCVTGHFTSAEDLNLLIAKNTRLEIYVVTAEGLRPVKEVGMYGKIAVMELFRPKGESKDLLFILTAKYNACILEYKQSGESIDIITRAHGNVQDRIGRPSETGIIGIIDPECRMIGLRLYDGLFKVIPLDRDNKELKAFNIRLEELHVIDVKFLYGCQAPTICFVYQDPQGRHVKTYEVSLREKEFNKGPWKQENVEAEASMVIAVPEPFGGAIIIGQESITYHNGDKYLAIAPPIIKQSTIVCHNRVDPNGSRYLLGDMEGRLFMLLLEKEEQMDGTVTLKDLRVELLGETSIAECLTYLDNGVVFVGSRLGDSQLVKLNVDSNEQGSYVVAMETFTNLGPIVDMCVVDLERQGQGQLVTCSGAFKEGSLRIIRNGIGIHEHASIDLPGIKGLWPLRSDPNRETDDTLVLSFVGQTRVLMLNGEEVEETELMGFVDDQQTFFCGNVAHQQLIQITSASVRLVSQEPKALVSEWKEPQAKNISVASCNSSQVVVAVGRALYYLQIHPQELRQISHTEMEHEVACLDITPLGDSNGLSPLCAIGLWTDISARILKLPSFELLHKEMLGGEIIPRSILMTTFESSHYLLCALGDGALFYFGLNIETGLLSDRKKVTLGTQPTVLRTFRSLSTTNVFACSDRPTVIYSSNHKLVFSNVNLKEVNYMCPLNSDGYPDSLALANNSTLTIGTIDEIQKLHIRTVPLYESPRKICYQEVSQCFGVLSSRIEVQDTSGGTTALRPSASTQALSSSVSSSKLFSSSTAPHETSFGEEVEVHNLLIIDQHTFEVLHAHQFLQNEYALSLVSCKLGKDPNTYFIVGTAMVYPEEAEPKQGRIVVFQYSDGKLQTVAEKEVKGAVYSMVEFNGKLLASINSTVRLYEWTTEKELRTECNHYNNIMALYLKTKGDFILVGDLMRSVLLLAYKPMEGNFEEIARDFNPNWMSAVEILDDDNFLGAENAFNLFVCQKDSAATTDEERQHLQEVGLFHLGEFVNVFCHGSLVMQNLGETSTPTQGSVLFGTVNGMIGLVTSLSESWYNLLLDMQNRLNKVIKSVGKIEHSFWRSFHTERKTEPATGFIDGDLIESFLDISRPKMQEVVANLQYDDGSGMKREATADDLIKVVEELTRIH

Regarding `O=C1CCC(N2Cc3cc(CNC(=O)C4=Cc5cc(NC(=O)C6CC6)ccc5OC4)ccc3C2=O)C(=O)N1` (centres unmarked) [Compound A-26, N-((2-(2,6-Dioxopiperidin-3-yl)-1-oxoisoindolin-5-yl)methyl)-6-(cyclopropanecarboxamido)-2H-chromene-3-carboxamide], the percent GSPT1 degradation at 0.2 µM at GSPT1 protein (setting [1]) is < 25%. Also, in the test with KG-1 cells (Homo sapiens), the pIC50 is 6.00 to 7.00.
Consider `O=C1CCC(N2Cc3cc(CNC(=O)C4=Cc5cc(NC(=O)C6CCC6)ccc5OC4)ccc3C2=O)C(=O)N1` (centres unmarked) [Compound A-27, N-((2-(2,6-Dioxopiperidin-3-yl)-1-oxoisoindolin-5-yl)methyl)-6-(cyclobutanecarboxamido)-2H-chromene-3-carboxamide], for which the percent GSPT1 degradation at 0.2 µM at GSPT1 protein (setting [1]) was < 25%. This molecule also gave a pIC50 in the test on KG-1 cells (Homo sapiens) of 6.00 to 7.00.
In the case of `Cc1cc2c(cc1Cl)C=C(C(=O)NCc1ccc3c(c1)CN(C1CCC(=O)NC1=O)C3=O)CO2` (centres unmarked) [Compound A-28], the GSPT1 degradation entry on GSPT1 protein (setting [1]) was “A (a GSPT1 protein degradation percentage of no less than 80%)”. The molecule further gave a pIC50 with KG-1 cells of 7.00 to 8.00.
`Cc1cc2c(cc1Cl)OCC(C(=O)NCc1ccc3c(c1)CN(C1CCC(=O)NC1=O)C3=O)=C2` (centres unmarked) [Compound A-29, N-((2-(2,6-Dioxopiperidin-3-yl)-1-oxoisoindolin-5-yl)methyl)-7-chloro-6-methyl-2H-chromene-3-carboxamide]: at GSPT1 protein (setting [1]), the percent GSPT1 degradation at 0.2 µM was > 80%. The molecule further showed a pIC50 in the test on KG-1 cells (Homo sapiens) of 7.00 to 8.00.
Take `Cc1cc2c(cc1F)OCC(C(=O)NCc1ccc3c(c1)CN(C1CCC(=O)NC1=O)C3=O)=C2` (centres unmarked) [Compound A-30, N-((2-(2,6-Dioxopiperidin-3-yl)-1-oxoisoindolin-5-yl)methyl)-7-fluoro-6-methyl-2H-chromene-3-carboxamide]: the percent GSPT1 degradation at 0.2 µM on GSPT1 protein (setting [1]) was > 80%. In addition, in the test with KG-1 cells (Homo sapiens), the pIC50 was 7.00 to 8.00.
Regarding `Cc1cc(F)cc2c1OCC(C(=O)NCc1ccc3c(c1)CN(C1CCC(=O)NC1=O)C3=O)=C2` (centres unmarked) [Compound A-31, N-((2-(2,6-Dioxopiperidin-3-yl)-1-oxoisoindolin-5-yl)methyl)-6-fluoro-8-methyl-2H-chromene-3-carboxamide], at GSPT1 protein (setting [1]), the percent GSPT1 degradation at 0.2 µM was > 80%. This molecule also showed a pIC50 with KG-1 cells (Homo sapiens) of 8.00 to 9.00.
With `O=C1CCC(N2Cc3cc(CNC(=O)C4=Cc5ccc(F)c(F)c5OC4)ccc3C2=O)C(=O)N1` (centres unmarked) [Compound A-32, N-((2-(2,6-Dioxopiperidin-3-yl)-1-oxoisoindolin-5-yl)methyl)-7,8-difluoro-2H-chromene-3-carboxamide], the percent GSPT1 degradation at 0.2 µM at GSPT1 protein (setting [1]) is > 80%. The same molecule showed a pIC50 with KG-1 cells (Homo sapiens) of 8.00 to 9.00.
On to `O=C1CCC(N2Cc3cc(CNC(=O)C4=Cc5cc(F)cc(F)c5OC4)ccc3C2=O)C(=O)N1` (centres unmarked) [Compound A-33, N-((2-(2,6-Dioxopiperidin-3-yl)-1-oxoisoindolin-5-yl)methyl)-6,8-difluoro-2H-chromene-3-carboxamide], for which, at GSPT1 protein (setting [1]), the percent GSPT1 degradation at 0.2 µM was > 80%. Further, the negative logarithm of the IC50 (pIC50) in the test with KG-1 cells (Homo sapiens) is 8.00 to 9.00.
With `O=C1CCC(N2Cc3cc(CNC(=O)C4=Cc5c(F)cc(F)cc5OC4)ccc3C2=O)C(=O)N1` (centres unmarked) [Compound A-34, N-((2-(2,6-Dioxopiperidin-3-yl)-1-oxoisoindolin-5-yl)methyl)-5,7-difluoro-2H-chromene-3-carboxamide], the percent GSPT1 degradation at 0.2 µM at GSPT1 protein (setting [1]) is > 80%. Besides, the pIC50 with KG-1 cells (Homo sapiens) is 8.00 to 9.00.
For the molecule `O=C1CCC(N2Cc3cc(CNC(=O)C4=Cc5cc(F)c(F)cc5OC4)ccc3C2=O)C(=O)N1` (centres unmarked) [Compound A-35, N-((2-(2,6-Dioxopiperidin-3-yl)-1-oxoisoindolin-5-yl)methyl)-6,7-difluoro-2H-chromene-3-carboxamide], on GSPT1 protein (KG-1, 4 h, read-out: GSPT1 degradation), the percent GSPT1 degradation was > 80%. This molecule gave a negative logarithm of the IC50 (pIC50) in the test on KG-1 cells (Homo sapiens) of 7.00 to 8.00.
Take `O=C1CCC(N2Cc3cc(CNC(=O)C4=Cc5c(F)ccc(F)c5OC4)ccc3C2=O)C(=O)N1` (centres unmarked) [Compound A-36, N-((2-(2,6-Dioxopiperidin-3-yl)-1-oxoisoindolin-5-yl)methyl)-5,8-difluoro-2H-chromene-3-carboxamide]: the percent GSPT1 degradation at 0.2 µM at GSPT1 protein (setting [1]) was > 80%. In the test on KG-1 cells (Homo sapiens), the pIC50 was 8.00 to 9.00.
For `Cc1cc2c(cc1C)OCC(C(=O)NCc1ccc3c(c1)CN(C1CCC(=O)NC1=O)C3=O)=C2` (centres unmarked) [Compound A-37, N-((2-(2,6-Dioxopiperidin-3-yl)-1-oxoisoindolin-5-yl)methyl)-6,7-dimethyl-2H-chromene-3-carboxamide] the same measures were > 80% and 7.00 to 8.00.
For `Cc1ccc(C)c2c1C=C(C(=O)NCc1ccc3c(c1)CN(C1CCC(=O)NC1=O)C3=O)CO2` (centres unmarked) [Compound A-38, N-((2-(2,6-Dioxopiperidin-3-yl)-1-oxoisoindolin-5-yl)methyl)-5,8-dimethyl-2H-chromene-3-carboxamide] the same measures were > 80% and 7.00 to 8.00.
For `O=C1CCC(N2Cc3cccc(CNC(=O)C4=Cc5cc(OC(F)(F)F)ccc5OC4)c3C2=O)C(=O)N1` (centres unmarked) [Compound A-39, N-((2-(2,6-Dioxopiperidin-3-yl)-3-oxoisoindolin-4-yl)methyl)-6-(trifluoromethoxy)-2H-chromene-3-carboxamide] the same measures were 50 to 80% and 7.00 to 8.00.
In the case of `O=C1CCC(N2Cc3ccc(CNC(=O)C4=Cc5cc(OC(F)(F)F)ccc5OC4)cc3C2=O)C(=O)N1` (centres unmarked) [Compound A-40, N-((2-(2,6-Dioxopiperidin-3-yl)-3-oxoisoindolin-5-yl)methyl)-6-(trifluoromethoxy)-2H-chromene-3-carboxamide], the percent GSPT1 degradation at 0.2 µM at GSPT1 protein (setting [1]) was 50 to 80%. This molecule also had a pIC50 in the test on KG-1 cells (Homo sapiens) of 7.00 to 8.00.
For `O=C1CCC(N2Cc3c(CNC(=O)C4=Cc5cc(OC(F)(F)F)ccc5OC4)cccc3C2=O)C(=O)N1` (centres unmarked) [Compound A-41, N-((2-(2,6-Dioxopiperidin-3-yl)-1-oxoisoindolin-4-yl)methyl)-6-(trifluoromethoxy)-2H-chromene-3-carboxamide] the same measures were 50 to 80% and 7.00 to 8.00.
On to `O=C1CCC(N2Cc3c(ccc(CNC(=O)C4=Cc5cccc(OC(F)(F)F)c5OC4)c3F)C2=O)C(=O)N1` (centres unmarked) [Compound A-43, N-((2-(2,6-Dioxopiperidin-3-yl)-4-fluoro-1-oxoisoindolin-5-yl)methyl)-8-(trifluoromethoxy)-2H-chromene-3-carboxamide], for which the percent GSPT1 degradation at 0.2 µM at GSPT1 protein (setting [1]) is > 80%. This molecule gave a pIC50 in the test with KG-1 cells (Homo sapiens) of 8.00 to 9.00.
In the case of `O=C1CCC(N2Cc3cc(CNC(=O)C4COc5ccc(F)cc5C4)ccc3C2=O)C(=O)N1` (centres unmarked) [Compound B-2, N-((2-(2,6-Dioxopiperidin-3-yl)-1-oxoisoindolin-5-yl)methyl)-6-fluorochromane-3-carboxamide], the percent GSPT1 degradation at 0.2 µM at GSPT1 protein (setting [1]) is > 80%. This molecule also showed a pIC50 in the test on KG-1 cells (Homo sapiens) of 8.00 to 9.00.
On the same counts, the results for `O=C1CCC(N2Cc3cc(CNC(=O)C4COc5ccc(Cl)cc5C4)ccc3C2=O)C(=O)N1` (centres unmarked) [Compound B-3, N-((2-(2,6-Dioxopiperidin-3-yl)-1-oxoisoindolin-5-yl)methyl)-6-chlorochromane-3-carboxamide] are > 80% and 8.00 to 9.00.
